Series [1] concerns LPS-induced NO production in RAW264.7 macrophages. Kind of series: LPS-induced nitrite (NO) production in RAW264.7 macrophages, Griess reaction. It counts as cell-based, mouse. The following applies: 5, 10 or 20 μg/ml together with 100 ng/ml LPS for 24 hours. How it is done: (§1) Cells. RAW264.7, a mouse macrophage cell line, was obtained from American Type Culture Collection. Cells were cultured in RPMI-1640 medium (available from Gibco Life Technology, in Gaithersburg, Md.) supplemented with 2 mM L-glutamine, antibiotics (100 units/ml penicillin-A and 100 units/ml streptomycin) and 10% heat-inactivated fetal bovine serum (Gibco/BRL) and maintained at 37° C in a humidified incubator containing 5% CO2.
Nitrite assay. The nitrite concentration in the medium was measured as an indicator of NO production according to the Griess reaction (Kim et al., J. Immunol. 153: 4741-4748). One hundred microliters of each supernatant was. mixed with the same volume of Griess reagent (1% sulfanilamide in 5% phosphoric acid and 0. 1% naphthylethylenediamine dihydrochloride in water); absorbency of the mixture at 550 nm was determined with an enzyme-linked immunosorbent assay plate reader (Dynatech MR-7000; Dynatech Labs, Chantilly, Va.).
The effects of flavonoids, ellagitannins, anthraquinones on LPS-induced NO production in macrophages were studied as follows. The chemical structures of two flavonoids (myricitrin, N1; oroxylin A, N2) four ellagitannins (penta-O-galloyl-β-glucopyranose, N3; woodfordin C, N4; onothein B, N5; cuphiin, N6), and two anthraquinones (emodin, N7; physcion, N8) that were used in the present study were shown in FIG. 1. The effects of these eight compounds on NO production in RAW264.7 macrophages were investigated. The accumulated nitrite in the culture medium was used as an index for NO synthesis from these cells. […]
(Nitrite, measured by Griess reagent, commonly stands in for NO production.)

A further series deals with NF-kB (p65) / IkB. The series is described as follows: Nuclear p65 / cytosolic IkB western blot in LPS-treated RAW264.7 macrophages. The conditions noted are these: 20 μg/ml, 100 ng/ml LPS for 30 minutes. It counts as cell-based, mouse. How it is done: (§2) Western blots. Total cellular extract, cytosolic fractions (for IkB) and nuclear fraction (for p65 antibody) were prepared according to Muller et al., Immunobiology, 187, 233-256, 1993 and separated on sodium dodecyl sulfatepolyacrylamide minigels (8% for iNOS or COX-2, and 10% for IkB or p65) and transferred to immobilon polyvinylidene difluoride membranes (Millipore, Bedford, Mass.). The membrane was incubated overnight at 4° C. with 1% bovine serum albumin and then incubated with anti-iNos, COX-2, α-Tubulin monoclonal antibodies (Transduction Laboratories, Lexington, Ky.), anti-IkB or anti-p65 polyclonal antibodies (Santa Cruz Biochemicals, Santa Cruz, Calif.). iNOS, IkB, p65, Cox-2, α-Tubulin were detected by NBT and BCIP staining (Sigma Chemical Co., St. Louis, Mo.).
NF-kB is a transcription factor that is activated in response to stimulation by LPS, and activation of NF-kB is an essential factor in inducing iNOS gene expression in macrophages (Kim, Y. M., Biochem. Biophys. Res. Commun. 236, 655-660, 1997). To assess the effect of these compounds (20 μg/ml) on early stage of iNOS gene expression, the activation of NF-kB in RAW264.7 macrophages was examined using the electrophoretic mobility shift assay (EMSA) (FIGS. 6i and 6ii).
For orientation: Immunoblotting shows a protein as a band on a membrane.

The test system of series [2] is iNOS. Kind of series: LPS-induced iNOS expression in RAW264.7 macrophages (western/northern blot). The series is classed as cell-based, mouse. As to the method: as §1, §2
Northern blot analysis. Total RNA (20 μg/lane) were separated by electrophoresis on 1.2% agarose gel containing 6.7% formaldehyde and transformed to a Hybond-N nylon membrane (American Life Science) in 20×standard saline citrate (3 M sodium chloride and 0.3 M sodium citrate, pH 7.0). After heating at 80° C. for 2 hours and prehybridization for 4 hours, the filters were hybridized with ^32P-labeled murine iNOS cDNA probes at a concentration of 3×10^6 cpm/ml for 16-18 hours at 42° C. The probe was labeled with [α-32P] dCTP by using Random Primer labeling kit (Stratagene, La Jolla, Calif.). Then, the filters were washed, dried and autoradiographed with Kodak-X-Omat XAR-film using intensifying screens at −80° C.

In a further series the test system is RAW264.7 cells. The conditions noted are these: mouse, 20 μg/ml.
Series [3] relates to iNOS. The series is described as follows: LPS-induced nitrite production and iNOS expression in Bcl-2-overexpressed RAW264.7 cells. The series is classed as cell-based, mouse. The conditions noted are these: 20 μg/ml, LPS 100 ng/ml, Bcl-2/RAW-1 and Bcl-2/RAW-2 cells.
Series [4] relates to porcine cerebral arteries. The series is described as follows: In vitro tissue bath vasorelaxation of precontracted porcine cerebral arteries. The following applies: concentrations as high as 100 μM, n=4.

Molecules are shown by their SMILES.

In the case of `Cc1cc(O)c2c(c1)C(=O)c1cc(O)cc(O)c1C2=O` [emodin, Emodin, reference compound], in series [1], the LPS-induced nitrite production entry is on record as “significant inhibition”. Further, in the series with NF-kB (p65) / IkB, the “LPS-induced increase of nuclear p65 and decrease of cytosolic IkB” value was “did not block”. The “blocking LPS-induced iNOS gene expression, comparison among compounds tested” value in the series on iNOS [2] was “potent inhibitory effect, comparable to oroxylin A”. Besides, the “LPS-induced iNOS protein” value in the series on iNOS [2] (100 ng/ml LPS, western blot) was “inhibited LPS-induced iNOS protein in a concentration-dependent manner”. The “cytotoxity by MTT assay” value in the series on RAW264.7 cells is listed as ~30%. In the series with iNOS [3], the “LPS-induced iNOS gene expression” value is “inhibited” and the LPS-induced nitrite production result is “inhibited”. In addition, in series [4], the “relaxation of cerebral arteries” value is on record as “very small relaxation or no response”.

For the origin of these results see US6806257B1, “Flavones as inducible nitric oxide synthase inhibitors, cyclooxygenase-2 inhibitors and potassium channel activators” (priority 1999, dated 2004).
